From PMC9569971, “New Oxazolo[5,4-d]pyrimidines as Potential Anticancer Agents: Their Design, Synthesis, and In Vitro Biological Activity Research” (International Journal of Molecular Sciences, 2022)
“Also recorded” adds a separate entry of the source. Where two headings read alike, the source gives them in different places.

How the values were obtained:
[1] = tested on: breast adenocarcinoma (MCF7); assay: MTT viability assay, MCF7; assay type: cell-based, human; conditions: for SI (selectivity index): CC50 NHDF / CC50 MCF7; for CC50: Homo sapiens, MCF7, MTT, tested 1–500 µM
Protocol: (§1) When the confluence was greater than 70%, adherent cell lines were detached from the bottle surface with a TrypLE solution and then used in assays or reduced. The cells were collected into centrifuge tubes and centrifuged at 1000× g for 5 min at room temperature. The supernatant was removed to dry. The cell pellets were then resuspended in an appropriate medium. The cells were counted using a Bürker chamber and resuspended in 96-well plates to a cell density of 10,000 cells per well for MTT assay. For the rhodamine accumulation test and the detection of apoptosis assay, cells were seeded at a density of 30,000 per well. In the migration assay, cells were seeded at a density of 20,000 per well, and monolayer formation was awaited.
(§2) In this study, normal human dermal fibroblasts (NHDFs), breast cancer cells (MCF7), human lung adenocarcinoma cells (A549), murine fibroblasts (L929), colon adenocarcinoma cells (HT29), and colorectal adenocarcinoma cells (LoVo) were used. All cell lines were cultured in the recommended media. […] The human lung adenocarcinoma cell line A549 and breast cancer cell line MCF-7 were obtained from the ECACC. These cell lines were cultured in Eagle’s minimal essential medium (MEM). Murine fibroblast L929 (Sigma-Aldrich, Merck Group, Headquarters, Darmstadt, Germany; the European Collection of Authenticated Cell Cultures—ECACC) cells were grown in DMEM. […] All media were supplemented with 10% FBS and 100 µg/mL of penicillin–streptomycin.
(§3) All compounds were dissolved in DMSO and the reference drugs were dissolved in physiological saline to concentrations of 10 mM. Concentrations from 1 to 500 μM in the media recommended for the cell lines were prepared for the tests.
(§4) All of the synthesized derivatives were evaluated via the MTT assay. All cell lines were seeded into 96-well plates at a density of 10,000 cells per well. To allow the cells to adhere to the surface of the plates, they were incubated overnight before the application of the test compounds. […] The tests were performed for concentrations of 1, 5, 10, 25, 50, 100, 250, and 500 μM. The solutions of the test compounds were removed from the culture on the 96-well plates. […] The supernatant was then removed. The violet crystal was dissolved in isopropanol for 30 min by shaking. Absorbance was measured at 570 nm.
(§5) Biological assays were performed in three independent replicates, and each replicate used four samples. Three repetitions were made for the ELISA determinations. For the assessment of cytotoxicity, mathematical models were developed using the GraphPad PRISM software, based on which CC50 was determined. The values of CC50 were estimated based on nonlinear regression using the dependence of the biological effect on the molar concentrations of the compounds (four-parameter logistic model with Hill slope).

[2] = tested on: lung adenocarcinoma (A549); assay: MTT viability assay, A549; assay type: cell-based, human; conditions: for SI (selectivity index): CC50 NHDF / CC50 A549; for CC50: Homo sapiens
Protocol: as §1, §2, §3, §4, §5

HT29 cells = assay: Migration (scratch) assay; assay type: cell-based, human; conditions: control T 155558.2, control T0 544366.45
Protocol: The scratch test was performed to verify that the tested compound 3g could inhibit the formation of metastases by the HT29 cell line. The seeded HT29 cells were incubated until they formed a monolayer over the entire surface of the well. Then, a scratch test was performed by making a scratch in the monolayer and measuring its width—that is, To, amounting to 544,366.45 μm^2. Freshly prepared compounds were added to the HT29 cells at concentrations of 10, 25, 50, and 100 μM. Breeding plates were incubated for 24 h. The next day, scratch width was measured again using the ImageJ open-source platform. […] The lowest cellular overgrowth of HT29 culture occurred at the concentration of 100 μM for the compound. Compound 3g inhibited the migration of HT29 cells more strongly than the reference drugs, showing that it has the potential to inhibit metastasis. The width of the scratch after 24 h when no compound was applied to the cells was used as a control (T = 155,558.2 μm^2).
as §1, with “All cell lines were grown in 5% CO2 at 95% humidity and 37 °C, with both morphology and confluence assessed twice per week. When” for “When”
After seeding, HT29 cells were incubated until they formed a monolayer over the entire surface of the well. A scratch was made on the surface overgrown with cells, and then photomicrographs of the scratch were taken using the EVOS FL microscope. The freshly prepared compound 3g and the reference drugs were added at concentrations of 10, 25, 50, and 100 µM. Then, they were incubated for 24 h, and micrographs were performed at that time using the EVOS FL microscope. The scratch width was measured using the ImageJ open-source platform. The measurement of scratch width was also performed after 24 h without adding compounds.

[3] = MTT viability assay, NHDF; assay type: cell-based, human; conditions: human, normal human dermal fibroblasts (NHDF), tested 1–500 µM
Protocol: as §1, §2, §3, §4, §5

[4] = MTT viability assay, L929; assay type: cell-based, murine; conditions: mouse, L929 fibroblasts, tested 1–500 µM
Protocol: as §1, §2, §3, §4, §5

[5] = tested on: primary colon adenocarcinoma (HT29); assay: MTT viability assay, HT29; assay type: cell-based, human; conditions: for SI (selectivity index): CC50 NHDF / CC50 HT29; for CC50: tested 1–500 µM
Protocol: as §1, §2, §3, §4, §5

[6] = tested on: HT29 primary colon adenocarcinoma cells; assay: Detection of apoptosis (Annexin V FITC / propidium iodide); assay type: cell-based, human; set-up: unit not given here; conditions: 24 h
Protocol: as §1, with “All cell lines were grown in 5% CO2 at 95% humidity and 37 °C, with both morphology and confluence assessed twice per week. When” for “When”
HT29 primary colon adenocarcinoma cells were grown in 96-well plates for 24 h. The 5 selected derivatives were added at concentrations of 1, 2, 5, and 10 µM, and then incubated for 24 h. The mixture of Annexin V conjugated with fluorescein and propidium iodide in PBS with Mg^2+ and Ca^2+ ions (Thermo Fisher Scientific, Waltham, MA, USA) was then applied. The incubation lasted 20 min at 37 °C. Pictures were taken using a fluorescence microscope. Thirteen images were taken from each well using an EVOS FL fluorescence microscope, with three replications for each compound. The open ImageJ space was used to analyze the number of cells. The Thermo Fisher Dead Cell Apoptosis Kit with Annexin V FITC and Propidium Iodide (PI) detects phosphatidylserine extrusion in apoptotic cells using Annexin V conjugated with a green fluorescent FITC dye and dead cells stained by PI with red fluorescence.

[7] = tested on: metastatic colon adenocarcinoma (LoVo); assay: MTT viability assay, LoVo; assay type: cell-based, human; conditions: for SI (selectivity index): CC50 NHDF / CC50 LoVo; for CC50: Homo sapiens, LoVo, MTT, tested 1–500 µM
Protocol: as §1, §2, §3, §4, §5

[8] = tested on: normal human dermal fibroblasts (NHDF); assay: MTT viability assay, NHDF; assay type: cell-based; conditions: tested 1–500 µM
Protocol: as §1, §2, §3, §4, §5

A549 = conditions: cited from earlier work
HT29 = conditions: ref 70; cited from earlier work

Row | Structure (SMILES) | SI (selectivity index) [1] | CC50 [1] | CC50 [3] | CC50 [4] | SI (selectivity index) [5] | CC50 ([5]; Homo sapiens, HT-29, HT29, MTT) | apoptosis mean ([6]; 1 μM) | late apoptosis mean ([6]; 1 μM) | necrosis mean ([6]; 1 μM) | percent live (viable) cells ([6]; 1 μM) | apoptosis mean ([6]; 2 μM) | late apoptosis mean ([6]; 2 μM) | necrosis mean ([6]; 2 μM) | percent live (viable) cells ([6]; 2 μM) | apoptosis mean ([6]; 5 μM) | late apoptosis mean ([6]; 5 μM) | necrosis mean ([6]; 5 μM) | percent live (viable) cells ([6]; 5 μM) | apoptosis mean ([6]; 10 μM) | late apoptosis mean ([6]; 10 μM) | other results
1 | O=c1[nH]cc(F)c(=O)[nH]1 [Compound 5-FU, 5-fluorouracil, reference compound] | 0.094 | 217 ± 20 µM | 20.4 ± 2.97 µM | 38.1 ± 7.13 µM | 0.053 | 381 µM | 7.92 | 31.72 | 10.48 | 59.77 | 10.65 | 28.91 | 8.86 | 63.94 | 10.75 | 33.06 | 8.39 | 60.16 | 3.81 | 16.02 | SI (selectivity index) [2]: 0.076; CC50 ([2]; A549, MTT, tested 1–500 µM): 269 ± 17.2 µM; scratch width after 24 h, mean (HT29 cells; 10 μM): 155098.248 μm^2; scratch width after 24 h, mean (HT29 cells; 25 μM): 192391.405 μm^2; scratch width after 24 h, mean (HT29 cells; 50 μM): 198312.887 μm^2; scratch width after 24 h, mean (HT29 cells; 100 μM): 282974.4 μm^2; CC50 ([5]; HT29, MTT): 381 ± 25.5 µM; necrosis mean ([6]; 10 μM): 34.82; percent live (viable) cells ([6]; 10 μM): 55.23; SI (selectivity index) [7]: 0.282
2 | CCCCCNc1ncnc2oc(-c3c(C)noc3N)nc12 [Compound 3e, 2-(5-Amino-3-methylisoxazol-4-yl)-7-N-pentylaminooxazolo[5,4-d]pyrimidine] | 0.804 | 155 ± 15.5 µM | 125 ± 11.5 µM | 89.2 ± 6.04 µM | 0.963 | 129 ± 10 µM | 6.20 | 11.11 | 4.53 | 78.17 | 4.33 | 12.44 | 9.43 | 73.80 | 5.40 | 18.31 | 10.22 | 66.07 | 4.05 | 22.59 | SI (selectivity index) [2]: 0.999; CC50 ([2]; A549, MTT, tested 1–500 µM): 125 ± 12.1 µM; necrosis mean ([6]; 10 μM): 20.74; percent live (viable) cells ([6]; 10 μM): 52.63; SI (selectivity index) [7]: 0.702; CC50 [7]: 178 ± 6.65 µM
3 | Cc1noc(N)c1-c1nc2c(NCCN3CCOCC3)ncnc2o1 [Compound 3j, 2-(5-Amino-3-methylisoxazol-4-yl)-7-N-[2-(morpholin-4-yl)ethyl]aminooxazolo[5,4-d]pyrimidine] | >>1 | 197 ± 13.1 µM | – | 52.9 ± 9.51 µM | >>1 | 99.9 ± 10.9 µM | 5.45 | 29.25 | 8.01 | 57.30 | 8.18 | 26.44 | 3.92 | 61.47 | 8.28 | 30.59 | 3.45 | 57.69 | 1.34 | 13.55 | CC50 ± SD [8]: no toxicity at all; also recorded: Non-toxic; necrosis mean ([6]; 10 μM): 32.35; percent live (viable) cells ([6]; 10 μM): 52.76
4 | COc1cc2nccc(Oc3ccc(NC(=O)NC4CC4)c(Cl)c3)c2cc1C(N)=O [Lenvatinib] | – | – | – | – | – | – | – | – | – | – | – | – | – | – | – | – | – | – | – | – | IC50 (A549; listed as lenvatinib): almost no effect; IC50 (A549; ref 69): No effect ^f; IC50 (HT29): 431 µM
5 | Cc1noc(N)c1-c1nc2c(NCCN(C)C)ncnc2o1 [Compound 3f, 2-(5-Amino-3-methylisoxazol-4-yl)-7-N-[2-(N,N-dimethylamino)ethyl]aminooxazolo[5,4-d]pyrimidine] | 0.881 | 195 ± 12 µM | 172 ± 20.7 µM | 207 ± 16.5 µM | 1.124 | 153 ± 15 µM | 7.07 | 3.15 | 0.16 | 89.62 | 3.08 | 7.34 | 5.76 | 83.82 | 6.76 | 12.74 | 5.73 | 74.77 | 18.64 | 6.51 | SI (selectivity index) [2]: 1.161; CC50 ([2]; A549, MTT, tested 1–500 µM): 148 ± 13.8 µM; necrosis mean ([6]; 10 μM): 2.78; percent live (viable) cells ([6]; 10 μM): 72.06; SI (selectivity index) [7]: 0.729; CC50 [7]: 235 ± 13 µM
6 | CCCNc1ncnc2oc(-c3c(C)noc3N)nc12 [Compound 3c, 2-(5-Amino-3-methylisoxazol-4-yl)-7-N-propylaminooxazolo[5,4-d]pyrimidine] | 0.862 | 199 ± 16.1 µM | 172 ± 14.5 µM | 90.6 ± 8.75 µM | 0.766 | 224 ± 23.1 µM | – | – | – | – | – | – | – | – | – | – | – | – | – | – | CC50 ± SD ([2]; A549, MTT, tested 1–500 µM): no activity; melting point: 220 to 221 °C (dec.)
